Test [1] concerns PC-12. The test can be described thus: Potentiation of NGF-induced neurite outgrowth in rat PC12 cells after 4 days using methylene blue staining by phase-contrast microscopy. The test is classed as functional, cell-based.
Test [2] concerns PC-12. The test can be described thus: Potentiation of NGF-induced neurite outgrowth in rat PC12 cells at 0.1 to 10 uM after 4 days using methylene blue staining by phase-contrast microscopy. In kind it is functional, cell-based.

Each structure is given as a SMILES string. The source made the active and inactive calls. No cut-off for these calls is given here.

For `O=C(CCC(=O)c1ccc2c(c1)OCO2)C(=O)N1CCCCC1`, in test [1], the Activity entry was “Dose-dependent effect”.

For the compound `CCCCC/C=C\CCCC/C=C/C=C/C(=O)NCC(C)C`, the result in test [2] was inactive.

On to `O=C(/C=C/C=C/c1ccc2c(c1)OCO2)N1CCCCC1`, for which, in test [2], the outcome was inactive.

Turning to `O=C(/C=C/CCCCCCCC/C=C/c1ccc2c(c1)OCO2)N1CCCCC1`, the result in test [2] was inactive.

The values are drawn from ChEMBL document CHEMBL2331478, “Evaluation of constituents of Piper retrofractum fruits on neurotrophic activity” (J Nat Prod, 2013).
